Measurements as given in paper PMC8362065, “Easily Available, Amphiphilic Diiron Cyclopentadienyl Complexes Exhibit in Vitro Anticancer Activity in 2D and 3D Human Cancer Cells through Redox Modulation Triggered by CO Release” (Chemistry (Weinheim an Der Bergstrasse, Germany), 2021).

How the values were obtained:
[1] = Solubility in D2O by 1H NMR (Me2SO2 internal standard); assay type: physicochemical; conditions: 21 °C
Method: Solubility in water. A suspension of the selected Fe compound (3–5 mg) in a D2O solution (0.7 mL) containing Me2SO2 as internal standard^52 (3.36 ⋅ 10^−3 M) was vigorously stirred at 21 °C for 10 h. The resulting saturated solution was filtered over celite, transferred into an NMR tube and analysed by ^1H NMR spectroscopy (delay time=3 s; number of scans=20). For the most soluble compounds (S≥0.05 M), a saturated solution was prepared in a smaller volume of D2O/Me2SO2 (0.2–0.3 mL), then filtered and diluted with pure D2O. The concentration (solubility) was calculated by the relative integral with respect to Me2SO2 (δ/ppm=3.14 (s, 6H)).

[2] = system: human pancreatic PSN‐1 cancer cells; experiment: Cellular uptake, iron by GF-AAS; assay type: cell-based; conditions: PSN‐1 cells, 50 μM, 24 h, GF-AAS (μg Fe per 10^6 cells, Figure 4A)
Method: (§1) In order to correlate the cytotoxic potential to the ability of the newly developed complexes to enter cells, we performed uptake experiments. […] Thus, cells were treated for 24 h with equimolar concentrations (50 μM) of the tested compounds. The cellular iron levels were quantified by means of GF‐AAS analysis, and the results, expressed as μg Fe per 10^6 cells, are shown in Figure 4A. […]
(§2) Figure 4 Intracellular detection of iron and carbon monoxide. A) Cellular uptake in PSN‐1 and HEK293 cells; cells were incubated with 50 μM of complexes for 24 h, and the cellular iron content was detected by GFAAS analysis. B) Intracellular CO levels were determined by using a fluorescent probe (BioTracker Carbon Monoxide Probe 1 Live Cell Dye®, Merck, Germany) after 30 min of treatment of PSN‐1 or HEK293 cells with 20 μM [2C]CF3SO3 and [2D]CF3SO3, or 20 μM CORM‐401 as positive control. ** P<0.01, * P<0.05.
(§3) Cellular uptake. […] Cell monolayers were washed twice with cold PBS, harvested and counted. […] After cooling, each mineralized sample was analysed for iron using a Varian AA Duo graphite furnace atomic absorption spectrometer (Varian) at the wavelength of 248.3 nm. […]

[3] = system: untransformed HEK293 cells; experiment: Cellular uptake, iron by GF-AAS; assay type: cell-based, human; conditions: 50 μM, 24 h, GF-AAS (μg Fe per 10^6 cells, Figure 4A)
Method: as §1, §2, §3

Substance	Solubility [1]	Cellular iron accumulation (uptake) [2]	Cellular iron accumulation (uptake) [3]
[Fe2Cp2(CO)2(μ‐CO){μ‐CNEt(2‐naphthyl)}]BF4 [[4G]BF4]	not soluble ^[a]	–	–
[Fe2Cp2(CO)2(μ‐CO){μ‐CNMe(4‐C6H4OMe)}]CF3SO3 [[2D]CF3SO3]	–	able to induce cellular iron accumulation	major iron accumulation in untransformed cells with respect to pancreatic cancer cells
